{"source": "patent US20050159442A1", "about": "“Protein tyrosine phosphatase 1B (PTP-1B) inhibitors and methods of using the same” (priority 2003, published 2005)", "target": "T1, human PTP-1B (Homo sapiens, UniProt P18031)", "T1 construct": "The fusion protein, which lacks the carboxyl terminus 35 amino acid residues of PTP-1B; made in house; host or cells: Escherichia coli (pGEX system)", "T1 sequence (P18031 1-400 limits assumed)": "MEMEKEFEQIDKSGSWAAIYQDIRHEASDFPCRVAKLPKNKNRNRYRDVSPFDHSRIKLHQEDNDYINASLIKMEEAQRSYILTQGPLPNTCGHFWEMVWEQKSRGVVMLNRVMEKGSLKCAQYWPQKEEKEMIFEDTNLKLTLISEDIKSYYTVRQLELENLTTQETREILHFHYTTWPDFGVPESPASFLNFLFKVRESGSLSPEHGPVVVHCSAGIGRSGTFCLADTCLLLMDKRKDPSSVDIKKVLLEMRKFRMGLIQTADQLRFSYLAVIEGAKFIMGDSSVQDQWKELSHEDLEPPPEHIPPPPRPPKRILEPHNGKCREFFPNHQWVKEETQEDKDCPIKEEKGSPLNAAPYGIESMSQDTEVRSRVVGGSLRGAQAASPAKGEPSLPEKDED", "assay": "Assay for PTP-1B phosphatase activity (malachite green, phosphorylated insulin receptor peptide)", "type": "biochemical", "conditions": "truncated human PTP-1B GST fusion protein, phosphorylated kinase domain of insulin receptor-1 as substrate, absorbance at 650 nm, read-out: IC50 of inhibition of PTP-1B phosphatase activity", "procedure": "PTP-1B phosphatase activity was measured as its ability to dephosphorylate a phosphorylated insulin receptor. In particular, a phosphorylated peptide derived from insulin receptor was used for the assay. The dephosphorylation reaction was monitored using a malachite green assay (Lanzetta et al., Anal Biochem. 1979, 100: 95-7), which measures the release of inorganic phosphate from the activated insulin receptor or the phosphorylated peptide derived from insulin receptor. A PTP-1B inhibitor decreases the yield of inorganic phosphate when it is added to the assay.\nA substantially purified, soluble, truncated human PTP-1B GST fusion protein was used as the source of PTP-1B enzyme. […]\nPTP-1B GST fusion protein (10 ng in 48 μl of assay buffer) was mixed with the phosphorylated kinase domain of insulin receptor-1 (70 μM in 201 μl of assay buffer) and the test compound (at desired concentration in 2 μl DMSO). […] After additional 30 minutes incubation at room temperature, the amount of inorganic phosphate released from the phosphorylated kinase domain of insulin receptor-1 in the reaction mixture was measured by the absorbance at 650 nm. […]"}
{"smiles": "Cc1ccc(CC/N=C2\\N/C(=N\\CCc3ccc(C)cc3)c3cnccc32)cc1", "note": "[Formula II, 1,3-Bis-(2-p-tolyl-ethylimino)-2,3-dihydro-1H-pyrrolo[3,4-c]pyridine]", "values": [{"measurement": "IC50", "result": 910, "unit": "nM"}]}
